Several values for one entry are separate records, joined by “and”; a condition that tells them apart may be missing. Equal values may be shown once. Read-outs that look alike come from different tables or passages of the source.
Key:
[1] = test system: S. aureus MN 8; assay type: cell-based, Staphylococcus aureus
[2] = physchem; settings: 25 °C, water
[3] = % reduction per mM Ca added, Ca 4.0 mM added to shake flask
[4] = % reduction per mM Ca added, higher concentrations, Ca (mM) as in Table 2: chloride 75.6, stearate 98.8, lactate 53.1, citrate malate 22.6, glycerate 39.7, gluconate 38.4, α-D-heptagluconate 38.1
[5] = % reduction per mM Ca added, low concentrations, Ca (mM) as in Table 1: chloride 15.1, stearate 9.9, lactate 8.8, citrate malate 6.8, glycerate 4.0, gluconate 3.8, α-D-heptagluconate 3.8
[6] = reduction of TSST-1 vs. PBS and BHI control, low concentrations, Ca (mM) added to shake flask: calcium chloride 15.1, calcium stearate 9.9 (solid added directly into the media), calcium lactate 8.8, calcium citrate malate 6.8, calcium glycerate 4.0, calcium gluconate 3.8, calcium α-D-heptagluconate 3.8

| Compound | % TSST-1 Change (μg/ml/mM) vs. control [1, 3] [%] | % TSST-1 Change (μg/ml/mM) vs. control [1, 4] [%] | % TSST-1 Change (μg/ml/mM) vs. control [1, 5] [%] | % TSST-1 Change (μg/mL) vs. control [1, 6] [%] | other results |
| --- | --- | --- | --- | --- | --- |
| O=C(O)C(O)CO (racemic) [calcium glycerate] | 17.0 | – | – | – | – |
| O=C([O-])C(O)CO.O=C([O-])C(O)CO.[Ca+2] [calcium D-glycerate] | 22.9 | – | – | – | – |
| O=C([O-])[C@@H](O)CO.O=C([O-])[C@@H](O)CO.[Ca+2] [calcium L-glycerate] | 15.3 | – | – | – | – |
| [Ca+2].[Cl-].[Cl-] [calcium chloride, reference compound] | – | 1.1 | 2.5 | 37 | – |
| O=C(O)C(O)CO (stereo not drawn) [calcium glycerate] | – | 2.5 | 17.0 | 68 | solubility [2]: 349 mM |
| CC(O)C(=O)[O-].CC(O)C(=O)[O-].[Ca+2] (stereo not drawn) [calcium lactate, reference compound] | – | 1.7 | 5.6 | 49 | – |
| O=C([O-])C(O)[C@H](O)[C@@H](O)[C@H](O)[C@H](O)CO.O=C([O-])C(O)[C@H](O)[C@@H](O)[C@H](O)[C@H](O)CO.[Ca+2] (stereo partly drawn) [calcium α-D-heptagluconate] | – | – | – | – | % TSST-1 Change (μg/mL) vs. control [1]: 47%; % TSST-1 Change (μg/ml/mM) vs. control [1]: 12.5% and 2.6% |
| calcium citrate malate [reference compound] | – | 3.9 | 13.1 | 89 | – |
| calcium gluconate | – | 2.5 | 21.3 | 81 | – |
| calcium stearate [reference compound] | – | 0.6 | 6.6 | 65 | – |
